Reference: patent US9000184B2, “Cyclohexane-1,2′-naphthalene-1′,2″-imidazol compounds and their use as BACE inhibitors” (AstraZeneca AB, priority 2012, dated 2015)

Columns and labels:
human β-Secretase [1] = biological target: T1, human β-Secretase (Homo sapiens (Human), UniProt P56817); test: TR-FRET assay; assay type: biochemical; conditions: sBACE-Fc 2.7 μg/ml, substrate 100 nM, pH 4.5, 15 minutes at RT
Protocol: The β-secretase enzyme used in the TR-FRET is prepared as follows:
(§1) The cDNA for the soluble part of the human β-Secretase (AA 1-AA 460) was cloned using the ASP2-Fc10-1-IRES-GFP-neoK mammalian expression vector. The gene was fused to the Fc domain of IgG1 (affinity tag) and stably cloned into HEK 293 cells.
(§2) The enzyme (truncated form) was diluted to 6 μg/mL (stock 1.3 mg/mL) and the TruPoint BACE1 Substrate to 200 nM (stock 120 μM) in reaction buffer (NaAcetate, chaps, triton x-100, EDTA pH4.5). Enzyme and compound in dimethylsulphoxide (final DMSO concentration 5%) was mixed and pre-incubated for 10 minutes at RT. Substrate was then added and the reaction was incubated for 15 minutes at RT. The reaction was stopped with the addition of 0.35 vol Stop solution (NaAcetate, pH 9). The fluorescence of the product was measured on a Victor II plate reader with excitation wavelengths of 340-485 nm and emission wavelengths of 590-615 nm. […] The dimethylsulphoxide control, instead of test compound, defined the 100% activity level and 0% activity was defined by wells lacking enzyme (replaced with reaction buffer) or by a saturating dose of a known inhibitor, 2-amino-6-[3-(3-methoxyphenyl)phenyl]-3,6-dimethyl-5H-pyrimidin-4-one.

[2] = system: sAPPβ release, SH-SY5Y cells; test: sAPPβ release assay; assay type: cell-based; conditions: 17 h incubation, MSD detection
Protocol: SH-SY5Y cells were cultured in DMEM/F-12 with Glutamax, 10% FCS and 1% non-essential amino acids and cryopreserved and stored at −140° C. at a concentration of 7.5-9.5×10^6 cells per vial. Thaw cells and seed at a conc. of around 10000 cells/well in DMEM/F-12 with Glutamax, 10% FCS and 1% non-essential amino acids to a 384-well tissue culture treated plate, […] cell susp/well. The cell plates were then incubated for 7-24 h at 37° C., 5% CO2. The cell medium was removed, followed by addition of 30 μL compound diluted in DMEM/F-12 with Glutamax, 10% FCS, 1% non-essential amino acids and 1% PeSt to a final conc. of 1% DMSO. The compounds were incubated with the cells for 17 h (overnight) at 37° C., 5% CO2. Meso Scale Discovery (MSD) plates were used for the detection of sAPPβ release. MSD sAPPβ plates were blocked in 1% BSA in Tris wash buffer (40 μL/well) for 1 h on shake at r.t. and washed 1 time in Tris wash buffer (40 μL/well). 20 μL of medium was transferred to the pre-blocked and washed MSD sAPPβ microplates, and the cell plates were further used in an ATP assay to measure cytotoxicity. The MSD plates were incubated with shaking at r.t. for 2 h and the media discarded. 10 μL detection antibody was added (1 nM) per well followed by incubation with shaking at r.t. for 2 h and then discarded. 40 μL Read Buffer was added per well and the plates were read in a SECTOR Imager.

human β-Secretase [3] = biological target: T1, human β-Secretase; test: Diluted TR-FRET assay; assay type: biochemical; conditions: footnote a: diluted FRET assay, 50 times less enzyme, 6.5 h reaction time at r.t.; read-out: IC50 in TR-FRET assay (IC50 from the diluted FRET assay)
Protocol: as §1, §2
Compounds with a high affinity were further tested in a diluted TR-FRET assay, conditions as described above for the TR-FRET assay, but with 50 times less enzyme and a 6.5 h long reaction time at r.t. in the dark.

T1 sequence (P56817 22-460): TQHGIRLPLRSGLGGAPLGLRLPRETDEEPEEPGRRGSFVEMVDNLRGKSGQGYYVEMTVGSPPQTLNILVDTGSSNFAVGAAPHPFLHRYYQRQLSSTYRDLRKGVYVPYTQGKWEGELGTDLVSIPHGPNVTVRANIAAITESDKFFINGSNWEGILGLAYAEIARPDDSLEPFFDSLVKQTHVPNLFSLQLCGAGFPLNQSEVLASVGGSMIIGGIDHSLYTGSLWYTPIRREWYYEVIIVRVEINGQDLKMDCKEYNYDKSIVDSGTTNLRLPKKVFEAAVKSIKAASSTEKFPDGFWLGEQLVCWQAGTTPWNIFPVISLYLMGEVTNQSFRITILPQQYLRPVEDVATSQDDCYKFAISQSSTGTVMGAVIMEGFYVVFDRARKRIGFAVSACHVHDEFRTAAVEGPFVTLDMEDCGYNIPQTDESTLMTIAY

| IC50 (human β-Secretase [1]) [µM] | IC50 [2] [µM] | IC50 (human β-Secretase [3]) [µM] | IC50 ([2]; Homo sapiens) [µM] | SMILES |
| --- | --- | --- | --- | --- |
| – | 0.0031 | 0.0057 | – | COC1CCC2(CCc3ccc(-c4cc(Cl)cc(C#N)c4)cc3C23N=C(C)C(N)=N3)CC1 (single isomer, unassigned; isomer 1) [10, isomer 1] |
| – | 0.0045 | 0.0036 | – | CO[C@H]1CC[C@]2(CCc3ccc(-c4cc(Cl)cc(C#N)c4)cc3C23N=C(C)C(N)=N3)CC1 (single isomer, unassigned; isomer 1) [11, isomer 1] |
| 0.392 | 0.092 | – | – | CO[C@H]1CC[C@@]2(CCc3ccc(-c4cc(Cl)cc(C#N)c4)cc3C23N=C(C)C(N)=N3)CC1 (single isomer, unassigned; isomer 2) [10, isomer 2] |
| > 5 | – | – | – | CO[C@H]1CC[C@@]2(CCc3ccc(-c4cc(Cl)cc(C#N)c4)cc3[C@@]23N=C(C)C(N)=N3)CC1 (single isomer, unassigned; isomer 2) [11, isomer 2] |
| 0.079 | – | – | 0.023 | CC1=NC2(N=C1N)c1cc(-c3cc(F)cc(C#N)c3)ccc1CCC21CC1 (centres unmarked) [Example 2, 3-(4″-Amino-5″-methyl-3′,4′-dihydrodispiro[cyclopropane-1,2′-naphthalene-1′,2″-imidazol]-7′-yl)-5-fluorobenzonitrile] |
| 0.13 | – | – | 0.118 | CC1=NC2(N=C1N)c1cc(-c3cc(F)cc(F)c3)ccc1CCC21CC1 (centres unmarked) [Example 3, 7′-(3,5-Difluorophenyl)-5″-methyl-3′,4′-dihydrodispiro[cyclopropane-1,2′-naphthalene-1′,2″-imidazol]-4″-amine] |
| – | – | – | 0.011 | CC1=NC2(N=C1N)c1cc(-c3cncc(Cl)c3)ccc1CCC21CC1 (centres unmarked) [Example 4, 7′-(5-Chloropyridin-3-yl)-5″-methyl-3′,4′-dihydrodispiro[cyclopropane-1,2′-naphthalene-1′,2″-imidazol]-4″-amine] |
| – | – | 0.015 | 0.016 | CC1=NC2(N=C1N)c1cc(-c3cc(Cl)cc(C#N)c3)ccc1CCC21CC1 (centres unmarked) [Example 9, 3-(4″-Amino-5″-methyl-3′,4′-dihydrodispiro[cyclopropane-1,2′-naphthalene-1′,2″-imidazol]-7′-yl)-5-chlorobenzonitrile] |

Further lines, the compound ahead of its results:

| SMILES | IC50 (human β-Secretase [1]) [µM] | IC50 [2] [µM] | IC50 (human β-Secretase [3]) [µM] | IC50 ([2]; Homo sapiens) [µM] |
| --- | --- | --- | --- | --- |
| CO[C@H]1CC[C@@]2(CCc3ccc(Br)cc3C23N=C(C)C(N)=N3)CC1 (single isomer, unassigned; isomer 1) [5, isomer 1] | 0.411 | 0.078 | – | – |
| COc1cc(C#N)cc(-c2ccc3c(c2)C2(N=C(C)C(N)=N2)[C@]2(CC3)CC[C@@H](OC)CC2)c1 (single isomer, unassigned; isomer 1) [6, isomer 1] | – | 0.001 | 0.005 | – |
| CO[C@H]1CC[C@@]2(CCc3ccc(-c4cncc(Cl)c4)cc3C23N=C(C)C(N)=N3)CC1 (single isomer, unassigned; isomer 1) [7, isomer 1] | – | 0.0025 | 0.014 | – |
| CC#Cc1cncc(-c2ccc3c(c2)C2(N=C(C)C(N)=N2)[C@]2(CC3)CC[C@H](OC)CC2)c1 (single isomer, unassigned; isomer 1) [8, isomer 1] | 0.212 | 0.081 | – | – |
| CO[C@H]1CC[C@]2(CCc3ccc(Br)cc3C23N=C(C)C(N)=N3)CC1 (single isomer, unassigned; isomer 2) [5, isomer 2] | 8.92 | – | – | – |
| COc1cc(C#N)cc(-c2ccc3c(c2)C2(N=C(C)C(N)=N2)[C@]2(CC3)CC[C@H](OC)CC2)c1 (single isomer, unassigned; isomer 2) [6, isomer 2] | 0.587 | 0.08 | – | – |
| CO[C@H]1CC[C@]2(CCc3ccc(-c4cncc(Cl)c4)cc3C23N=C(C)C(N)=N3)CC1 (single isomer, unassigned; isomer 2) [7, isomer 2] | 0.333 | 0.019 | – | – |
| CC#Cc1cncc(-c2ccc3c(c2)C2(N=C(C)C(N)=N2)[C@]2(CC3)CC[C@@H](OC)CC2)c1 (single isomer, unassigned; isomer 2) [8, isomer 2] | 0.019 | 0.0024 | – | – |
